The record followed here is US10357036B2, “Compounds for controlling arthropods” (priority 2015, dated 2019).

Like-named read-outs stand apart in the source and are kept apart here.

For one series, the system named is Tetranychus urticae. The series is described as follows: Tetranychus urticae spray test, OP-resistant (bean leaf discs). The series is classed as in vivo. To be noted: 100 g/ha; after 6 days. As to the method: (§1) After 6 days, the efficacy in % is determined.
The subject of the next series is Amblyomma hebraeum. Kind of series: Amblyomma hebraeum test (tick nymphs, immersion). The series is classed as in vivo. To be noted: 100 ppm; after 42 days. As to the method:
(§2) • Solvent: dimethyl sulfoxide
(§3) To produce a suitable active ingredient formulation, 10 mg of active ingredient are mixed with 0.5 ml of dimethyl sulfoxide, and the concentrate is diluted with water to the desired concentration.
Tick nymphs (Amblyomma hebraeum) are placed into perforated plastic beakers and immersed in the desired concentration for one minute. The ticks are transferred on filter paper into a Petri dish and stored in a climate-controlled cabinet.

Series [1] concerns cattle ticks (Boophilus microplus) Parkhurst strain, SP-resistant. Kind of series: Boophilus microplus dip test. The series is classed as in vivo. To be noted: 100 ppm; assessed after 7 days. A digest of the protocol:
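Engorged adult female ticks (8-10 per tube) fully immersed in compound from DMSO stock diluted with water to test concentration, then held in a climate-controlled room. Efficacy scored after 7 days from fertile egg laying, with eggs kept until hatching at about 42 days. 100% means no fertile eggs laid.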

A further series relates to Spodoptera frugiperda. Kind of series: Spodoptera frugiperda spray test. The series is classed as in vivo. To be noted: 100 g/ha, after 7 days; for pest or weed control at 100 g/ha: Spodoptera frugiperda, 168 h, read-out: efficacy.
The test system of series [2] is Ctenocephalides felis. The series is described as follows: Ctenocephalides felis oral test. The series is classed as in vivo. The note with it: 100 ppm in citrated cattle blood; after 2 days.
In another series the test system is Phaedon cochleariae. Kind of series: Phaedon cochleariae spray test. The note with it: for efficacy: 100 g/ha, after 7 days; for pest or weed control at 100 g/ha: Phaedon cochleariae, 168 h, read-out: efficacy.
The subject of series [3] is Ctenocephalides felis. The series is described as follows: Ctenocephalides felis in vitro contact test with adult cat fleas. In kind it is in vivo. The note with it: application rate 5 μg/cm^2 (=500 g/ha); after 48 h; dead or moribund fleas. In short, it runs like this: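 After 48 h at room temperature and ambient humidity, adult cat fleas (5–10 per tube) were scored, with motionless or uncoordinated fleas counted dead or moribund. Tubes had been coated with acetone solutions of compound, the 900 ppm solution giving 5 μg/cm². Efficacy: 100% means all fleas dead or moribund, 0% none harmed.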

Another series deals with Myzus persicae. The series is described as follows: Myzus persicae spray test (Chinese cabbage leaf discs). The series is classed as in vivo. The note with it: 100 g/ha; after 6 days. As to the method: as §1
The test system of the next series is Musca domestica. The series is described as follows: Musca domestica test. In kind it is in vivo. The note with it: 100 ppm; adult houseflies; after 2 days. The procedure: as §2, §3
Vessels containing a sponge treated with sugar solution and the active ingredient formulation of the desired concentration are populated with 10 adult houseflies (Musca domestica).

For a further series, the system named is Boophilus microplus. The series is described as follows: Boophilus microplus injection test. The series is classed as in vivo. To be noted: 20 μg/animal; assessed after 7 days. The procedure: as §2
1 μl of the active ingredient solution is injected into the abdomen of 5 engorged adult female cattle ticks (Boophilus microplus). The animals are transferred into dishes and kept in a climate-controlled room.

In a further series the test system is Rhipicephalus sanguineus. The series is described as follows: Rhipicephalus sanguineus in vitro contact test with adult brown dog ticks. The note with it: after 48 h. The series is classed as in vivo. A digest of the protocol: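 Efficacy, as % of ticks dead or moribund, was judged 48 h after placing 5-10 adult brown dog ticks in acetone-coated tubes (5 μg/cm^2 from 900 ppm) kept dark at room temperature. Ticks unable to climb away from a 45-50° C hotplate within 5 min counted as affected.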

For series [4], the system named is Anopheles gambiae strain RSPH (homozygot kdr). Kind of series: whole plant or invertebrate. In kind it is in vivo. The note with it: read-out: efficacy (mortality). The procedure:
(§4) • Solvent: acetone+2000 ppm rapeseed oil methyl ester (RME)
To produce a suitable active compound formulation, the active compound is dissolved in the solvent (2 mg/ml). The active compound formulation is pipetted onto a glazed tile and, after it has dried off, adult mosquitoes of the species Anopheles gambiae strain RSPH (homozygot kdr) are placed onto the treated tile. The exposure time is 30 minutes.

Series [5] relates to Anopheles funestus strain FUMOZ-R. Kind of series: whole plant or invertebrate. To be noted: read-out: efficacy (mortality). In kind it is in vivo. The procedure:
as §4
To produce a suitable active compound formulation, the active compound is dissolved in the solvent (2 mg/ml). The active compound formulation is pipetted onto a glazed tile and, after it has dried off, adult mosquitoes of the species Anopheles funestus strain FUMOZ-R (Hunt et al., Med Vet Entomol. 2005 September; 19 (3):271-5) are placed onto the treated tile. The exposure time is 30 minutes.

Series [6] relates to Aedes aegypti strain MONHEIM. Kind of series: whole plant or invertebrate. The series is classed as in vivo. The note with it: read-out: efficacy (mortality). The procedure: as §4
To produce a suitable active compound formulation, the active compound is dissolved in the solvent (2 mg/ml). The active compound formulation is pipetted onto a glazed tile and, after it has dried off, adult mosquitoes of the species Aedes aegypti strain MONHEIM are placed onto the treated tile. The exposure time is 30 minutes.

Series [7] deals with Amaranthus retroflexus (AMARE). The series is described as follows: Herbicidal activity, pre-emergence. The note with it: 1280 g/ha, 3 weeks. The series is classed as in vivo. From the text: (§5) Seeds of monocotyledonous and dicotyledonous weed plants and crop plants were placed in wood-fibre pots in sandy loam and covered with soil. The compounds according to the invention, formulated as emulsion concentrates (EC), were then applied to the surface of the covering soil as an emulsion at a water application rate equating to 600 to 800 Uha with addition of 0.2% wetting agent.
(§6) After the treatment, the pots were placed in a greenhouse and kept under good growth conditions for the test plants. The damage to the test plants was scored visually after a test period of 3 weeks by comparison with untreated controls (herbicidal activity in percent (%): 100% activity=the plants have died, 0% activity=like control plants). Here, for example, compounds No. Ia-17, Ia-37, Ia-28 and Ia-56 at an application rate of 1280 g/ha each show 100% efficacy against Amaranthus retroflexus (AMARE) and with the exception of Ia-56, even against Viola tricolor (VIOTR). Furthermore, compounds no. Ia-17, Ia-37 and Ia-28 at the same application rate show an 80% or better efficacy against Matricaria inodorae (MATIN) and Ia-17 and Ia-37 even against Stellaria media (STEME).

The test system of the next series is Viola tricolor (VIOTR). The series is described as follows: Herbicidal activity, pre-emergence. The series is classed as in vivo. The note with it: 1280 g/ha, 3 weeks.
From the text: as §5, §6

Where [8] appears, read: application rate 5 μg/cm^2 (=500 g/ha), dead or moribund ticks.
[9] abbreviates: reversed-phase C18 HPLC column, logP, HPLC, C18, acetonitrile/water with formic acid (note a).
The mark [10] stands for this setting: reversed-phase C18 HPLC column, logP^a, HPLC-MS method a).

For `CCC(=O)NCc1cc(-c2cnn(-c3c(C)cc(C(F)(C(F)(F)F)C(F)(F)F)cc3C)c2)ccc1F` [Ia-01], the efficacy in the series on Tetranychus urticae, in the series with Spodoptera frugiperda, in the series on Phaedon cochleariae, in the series with Ctenocephalides felis [3], in the series on Myzus persicae and in the series on Rhipicephalus sanguineus (setting [8]) was 100% each time. Moreover, the “efficacy (rate of extermination)” value in the series with Amblyomma hebraeum, in the series with Ctenocephalides felis [2] and with Musca domestica was 100% each time. Further, the “efficacy (laying of fertile eggs)” value (in series [1]; with Boophilus microplus) was 100% throughout.
By mortality is commonly meant the share of the test organisms that died. As usually defined, the chromatographic logP is a lipophilicity value derived from retention on a column. Take `CC(=O)NCc1cc(-c2cnn(-c3c(Cl)cc(C(F)(C(F)(F)F)C(F)(F)F)cc3Cl)c2)ccc1Cl` [Ia-05, N-(2-chloro-5-{1-[2,6-dichloro-4-(1,1,1,2,3,3,3-heptafluoropropan-2-yl)phenyl]-1H-pyrazol-4-yl}benzyl)acetamide]: the mortality at 20 mg/m2 in series [4], in series [5] and in [6] was 90 to 100% each time. Also, the mortality at 100 mg/m2 in series [4], in series [5] and in series [6] was 90 to 100% each time. The pest or weed control at 100 g/ha with Spodoptera frugiperda and with Phaedon cochleariae was 100% throughout. Moreover, the “efficacy (rate of extermination)” value with Ctenocephalides felis [2] and in the series with Musca domestica was 100% throughout. In addition, the chromatographic logP reads like this: under setting [9], 4.13; under setting [10], 4.13. The efficacy in the series on Ctenocephalides felis [3] and in the series with Rhipicephalus sanguineus (setting [8]) was 100% in each case. The “efficacy (laying of fertile eggs)” value with Boophilus microplus is recorded as 100%.
On to `O=C(NCc1cc(-c2cnn(-c3c(Cl)cc(C(F)(C(F)(F)F)C(F)(F)F)cc3OC(F)(F)F)c2)ccc1Cl)C1CC1` [Ia-56], for which the efficacy in the series with Spodoptera frugiperda, in the series with Phaedon cochleariae, in the series with Ctenocephalides felis [3] and with Rhipicephalus sanguineus (application rate 1 μg/cm^2 (=100 g/ha)) was 100% throughout. Moreover, the “efficacy (rate of extermination)” value in the series on Ctenocephalides felis [2] and in the series on Musca domestica was 100% each time. Besides, the herbicidal efficacy in series [7] was determined as 100%. In addition, the “efficacy (laying of fertile eggs)” value in the series on Boophilus microplus turned out to be 100%.
For the molecule `CC(=O)N(Cc1cc(-c2cnn(-c3c(Cl)cc(C(F)(C(F)(F)F)C(F)(F)F)cc3Cl)c2)ccc1Cl)C(C)=O` [Ia-108, N-Acetyl-N-(2-chloro-5-{1-[2,6-dichloro-4-(1,1,1,2,3,3,3-heptafluoropropan-2-yl)phenyl]-1H-pyrazol-4-yl}benzyl)acetamide], the mortality at 100 mg/m2 in series [4] and in series [6] was 90 to 100% each time. The efficacy with Tetranychus urticae is given as 90%; in the series with Ctenocephalides felis [3] it was 100%; in the series on Rhipicephalus sanguineus (setting [8]), 80%. Also, the pest or weed control at 100 g/ha with Spodoptera frugiperda and in the series with Phaedon cochleariae was 100% each time. For the same molecule, the “efficacy (rate of extermination)” value in the series on Ctenocephalides felis [2] and in the series with Musca domestica was 100% in each case. The molecule further gave a chromatographic logP under setting [9] of 5.14 and a chromatographic logP under setting [10] of 5.14. Further, the “efficacy (laying of fertile eggs)” value in the series with Boophilus microplus is listed as 100%. Moreover, the mortality at 20 mg/m2 in series [6] lay within 90 to 100%.
With `CC(=S)NCc1cc(-c2cnn(-c3c(Cl)cc(C(F)(C(F)(F)F)C(F)(F)F)cc3Cl)c2)ccc1Cl` [Ia-162, N-(2-chloro-5-{1-[2,6-dichloro-4-(1,1,1,2,3,3,3-heptafluoropropan-2-yl)phenyl]-1H-pyrazol-4-yl}benzyl)ethanethioamide], the mortality at 20 mg/m2 in [4], in series [5] and in series [6] was 90 to 100% throughout. Besides, the efficacy with Tetranychus urticae, in the series on Ctenocephalides felis [3] and in the series on Rhipicephalus sanguineus (setting [8]) was 100% in each case. Also, the “efficacy (laying of fertile eggs)” value in [1] is recorded as 80%; with Boophilus microplus it was 100%. Moreover, the pest or weed control at 100 g/ha with Spodoptera frugiperda and with Phaedon cochleariae was 100% throughout. The “efficacy (rate of extermination)” value in the series with Ctenocephalides felis [2] and with Musca domestica was 100% throughout. The same molecule had a chromatographic logP under setting [9] of 4.98 and a chromatographic logP (reversed-phase C18 HPLC column, logP^a, HPLC-MS method a), reversed-phase column (C18)) of 4.98.
`CC(=O)NCc1cccc(-c2cnn(-c3c(C)cc(C(F)(C(F)(F)F)C(F)(F)F)cc3C)c2)c1` [Ia-37]: the efficacy in the series on Tetranychus urticae is on record as 100%; with Spodoptera frugiperda, 83%; in the series with Phaedon cochleariae, 100%; in the series with Rhipicephalus sanguineus (setting [8]), 80%. For the same molecule, the “efficacy (rate of extermination)” value in the series on Ctenocephalides felis [2] and in the series on Musca domestica was 100% in each case. Further, the herbicidal efficacy (in the series with Viola tricolor (VIOTR); in series [7]) was 100% each time. In addition, the “efficacy (laying of fertile eggs)” value with Boophilus microplus worked out at 100%.
Take `CCC(=O)NCc1cccc(-c2cnn(-c3c(C)cc(C(F)(C(F)(F)F)C(F)(F)F)cc3C)c2)c1` [Ia-28]: the efficacy is given as 100% in the series with Tetranychus urticae, 100% in the series on Spodoptera frugiperda, 100% with Phaedon cochleariae and 80% in the series with Rhipicephalus sanguineus (setting [8]). The “efficacy (laying of fertile eggs)” value in series [1] is recorded as 80%; with Boophilus microplus, 100%. In addition, the “efficacy (rate of extermination)” value with Ctenocephalides felis [2] and in the series with Musca domestica was 100% throughout. The herbicidal efficacy (with Viola tricolor (VIOTR); in series [7]) was 100% in each case.
Consider `CC(=O)NCc1cc(-c2cnn(-c3c(C)cc(C(F)(C(F)(F)F)C(F)(F)F)cc3C)c2)ccc1F` [Ia-13], for which the efficacy in the series with Tetranychus urticae, in the series with Spodoptera frugiperda, with Phaedon cochleariae, with Ctenocephalides felis [3], with Myzus persicae and in the series on Rhipicephalus sanguineus (setting [8]) was 100% throughout. Moreover, the “efficacy (rate of extermination)” value in the series with Amblyomma hebraeum, in the series on Ctenocephalides felis [2] and in the series on Musca domestica was 100% throughout. Besides, the “efficacy (laying of fertile eggs)” value (in series [1]; in the series on Boophilus microplus) was 100% throughout.
